Consider seven compounds from patent US7488568B2, “Resist composition, method of forming resist pattern, compound and acid generator” (Tokyo Ohka Kogyo Co., Ltd., priority 2008, dated 2009).

The data set in a line: Evaluation of solubility of acid generators in resist solvents (concentration at which completely dissolved). The format is physicochemical. To be noted: for Solubility in EL (% by weight): ethyl lactate; for Solubility in PGME (% by weight): propylene glycol monomethyl ether; for Solubility in PGMEA (% by weight): propylene glycol monomethyl ether acetate. On the procedure:
With respect to each of the compounds, propylene glycol monomethyl ether acetate (PGMEA) solutions, propylene glycol monomethyl ether (PGME) solutions and ethyl lactate (EL) solutions of various concentrations were prepared. The prepared solutions were stirred to evaluate the concentration at which the acid generator was completely dissolved.

The mark [1] stands for this setting: Table 1, concentration at which completely dissolved.

Some results are limits rather than exact numbers.

As for `c1ccc([S+](c2cccc3ccccc23)c2cccc3ccccc23)cc1` [(1)], for the setting “Table 8”, the “Solubility in EL (% by weight)” value is listed as 5.0 % by weight, the “Solubility in PGME (% by weight)” value is 5.0 % by weight and the “Solubility in PGMEA (% by weight)” value is below 2.0 % by weight.

With `c1ccc(-[s+]2c3ccccc3c3ccccc32)cc1` [(2)], under “Table 8”, the “Solubility in EL (% by weight)” value is recorded as 20.0 % by weight, the “Solubility in PGME (% by weight)” value turned out to be 20.0 % by weight and the “Solubility in PGMEA (% by weight)” value is reported as 10~15 % by weight.

Regarding `c1ccc(-[s+]2c3ccccc3c3ccccc32)cc1` [(b1-01), phenyldibenzothiophenium nonafluorobutane sulfonate], where the note is “Table 1”, the “Solubility in EL (% by weight)” value was found to be 20 % by weight and the “Solubility in PGMEA (% by weight)” value amounted to 20 % by weight. Moreover, under setting [1], the “Solubility in PGME (% by weight)” value is listed as 10-15 % by weight.

Consider `c1ccc([S+](c2cccc3ccccc23)c2cccc3ccccc23)cc1` [(b′-01), di(1-naphthyl)phenylsulfonium nonafluorobutane sulfonate], for which, where the note is “Table 1”, the “Solubility in EL (% by weight)” value was 5 % by weight and the “Solubility in PGMEA (% by weight)” value stood at 5 % by weight. Besides, under setting [1], the “Solubility in PGME (% by weight)” value is given as below 2 % by weight.

In the case of `Cc1cc(-[s+]2c3ccccc3c3ccccc32)cc(C)c1O` [Compound (b1-51)], the “Solubility in EL (% by weight)” value (Table 1) is reported as 10-15 % by weight. Also, the “Solubility in PGMEA (% by weight)” value (Table 1) is reported as 10-15 % by weight. For the same compound, the “Solubility in PGME (% by weight)” value is, setting by setting: under setting [1], below 2 % by weight; (Table 8) 10~15 % by weight.

As for `Cc1cc(-[s+]2c3ccccc3c3ccccc32)cc(C)c1OC(=O)OC(C)(C)C` [Compound (b1-81)], for the setting “Table 1”, the “Solubility in EL (% by weight)” value amounted to 20 % by weight and the “Solubility in PGMEA (% by weight)” value is 20 % by weight. For the same compound, the “Solubility in PGME (% by weight)” value under setting [1] is recorded as 10 % by weight.

As for `Cc1cc(-[s+]2c3ccccc3c3ccccc32)cc(C)c1OCOC1CCCCC1` [b1-100], under “Table 8”, the “Solubility in EL (% by weight)” value is recorded as above 30 % by weight, the “Solubility in PGME (% by weight)” value was above 30 % by weight and the “Solubility in PGMEA (% by weight)” value is above 30 % by weight.
